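How tested: cells in 96-well plates exposed to compound for 48 hours at five concentrations. At the GI50, growth is halved. TGI denotes the concentration required for complete inhibition of growth.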
Key:
Experiment in all cases: NCI tumour cell line growth inhibition, 48 h
786-0 renal = system: 786-0 renal
HCT-116 colon = system: HCT-116 colon
HL-60(TB) leukemia = system: HL-60(TB) leukemia
HT29 colon = system: HT29 colon
OVCAR-4 ovarian = system: OVCAR-4 ovarian
OVCAR-5 ovarian = system: OVCAR-5 ovarian
SK-OV-3 ovarian = system: SK-OV-3 ovarian
U251 CNS = system: U251 CNS
UO-31 renal = system: UO-31 renal
MCF7 breast = system: MCF7 breast

Structure (SMILES)	TGI (786-0 renal)	TGI (HCT-116 colon)	TGI (HL-60(TB) leukemia)	TGI (HT29 colon)	TGI (OVCAR-4 ovarian)	TGI (OVCAR-5 ovarian)	TGI (SK-OV-3 ovarian)	TGI (U251 CNS)	TGI (UO-31 renal)	GI50 (786-0 renal)	GI50 (HCT-116 colon)	GI50 (HL-60(TB) leukemia)	GI50 (HT29 colon)	GI50 (OVCAR-4 ovarian)	GI50 (OVCAR-5 ovarian)	GI50 (SK-OV-3 ovarian)	GI50 (U251 CNS)	GI50 (UO-31 renal)	GI50 (MCF7 breast)	TGI (MCF7 breast)
CN1CCN=C1c1nnn(-c2ccc([N+](=O)[O-])cc2)c1-c1ccccc1	> 100 µM	> 100 µM	61.4 µM	> 100 µM	> 100 µM	> 100 µM	> 100 µM	> 100 µM	> 100 µM	–	–	–	–	–	–	–	–	–	–	–
COc1cc(OC)c2c(=O)cc(-c3ccccc3OCc3ccccc3)oc2c1OC	56.4 µM	50.5 µM	> 100 µM	> 100 µM	> 100 µM	84.3 µM	> 100 µM	> 100 µM	> 100 µM	5.49 µM	9.22 µM	> 100 µM	28.9 µM	6.32 µM	18 µM	98 µM	9.59 µM	> 100 µM	–	–
COc1cc(Cc2c(C)cc(OC)c3[nH]c4ccccc4c23)cc2c1[nH]c1ccccc12	14.2 µM	> 25 µM	> 25 µM	> 25 µM	–	12.5 µM	> 25 µM	9.84 µM	18.6 µM	5.38 µM	9.18 µM	7.95 µM	7.84 µM	–	–	8.8 µM	4.96 µM	6.05 µM	–	–
CS(=O)(=O)c1ccc(COP(N)(=O)N(CCCl)CCCl)cc1 (stereo unspecified)	> 100 µM	> 100 µM	–	> 100 µM	> 100 µM	> 100 µM	> 100 µM	> 100 µM	> 100 µM	–	–	–	–	–	–	–	–	–	–	–
CCCCNS(=O)(=O)c1ccc(-c2ccc3c(c2)-c2ccc(S(=O)(=O)NCCCC)cc2S3(=O)=O)cc1	27.9 µM	54.9 µM	> 100 µM	> 100 µM	15.4 µM	> 100 µM	45.5 µM	55.5 µM	> 100 µM	–	–	–	–	–	–	–	–	–	–	–
CCCCCCC(=O)C/C(CCC(=O)N(Cc1ccccc1)Cc1ccccc1)=N\NC(N)=O	> 100 µM	> 100 µM	> 100 µM	> 100 µM	> 100 µM	> 100 µM	> 100 µM	> 100 µM	> 100 µM	–	–	–	–	–	–	–	–	–	–	–
COC(=O)/C(C#N)=C1\CCC(OC)N1C (stereo unspecified)	> 100 µM	> 100 µM	> 100 µM	> 100 µM	> 100 µM	> 100 µM	> 100 µM	> 100 µM	> 100 µM	–	–	–	–	–	–	–	–	–	–	–
CCC(C)(O)c1cn(-c2ccc(Cl)cc2)nn1 (stereo unspecified)	> 100 µM	> 100 µM	> 100 µM	> 100 µM	> 100 µM	> 100 µM	> 100 µM	> 100 µM	> 100 µM	–	–	–	–	–	–	–	–	–	–	–
O=C(O)c1c2c(cc3c(=O)c4ccccc4[nH]c13)CCCC2	> 100 µM	> 100 µM	> 100 µM	> 100 µM	–	> 100 µM	> 100 µM	–	> 100 µM	–	–	–	–	–	–	–	–	–	–	–
COc1cc2c(cc1OC)C(C(CBr)CBr)N(C1CCCC1)CC2 (stereo unspecified)	> 100 µM	–	> 100 µM	> 100 µM	> 100 µM	> 100 µM	> 100 µM	> 100 µM	> 100 µM	–	–	–	–	–	–	–	–	–	–	–
O=C1OC(=O)C23CSCC12C1C=CC3O1 (stereo unspecified)	> 100 µM	> 100 µM	> 100 µM	> 100 µM	–	> 100 µM	> 100 µM	> 100 µM	> 100 µM	–	–	–	–	–	–	–	–	–	–	–
Cc1ccccc1-n1c(=S)[nH]c2c(sc(=O)n2-c2ccccc2C)c1=O	> 100 µM	> 100 µM	> 100 µM	> 100 µM	> 100 µM	> 100 µM	> 100 µM	> 100 µM	> 100 µM	–	–	–	–	–	–	–	–	–	–	–
CN1CCC(c2c(O)cc(O)c3c(=O)cc(-c4ccccc4Cl)oc23)C(O)C1 (stereo unspecified)	> 100 µM	–	–	> 56.3 µM	0.473 µM	0.602 µM	> 73.4 µM	> 100 µM	> 100 µM	–	–	–	–	–	0.0687 µM	–	–	–	–	–
CC(C)(C)c1ccc(C2CC(=O)C3=C(C2)Nc2ccccc2N(C(=O)c2ccccc2Cl)C3c2ccc(F)cc2)cc1 (stereo unspecified)	> 100 µM	> 100 µM	–	–	> 100 µM	> 100 µM	> 100 µM	> 100 µM	> 100 µM	> 100 µM	> 100 µM	–	–	> 100 µM	> 100 µM	> 100 µM	> 100 µM	> 100 µM	> 100 µM	> 100 µM
COC(=O)C(=O)C(C(=O)C(=O)Nc1ccccc1[N+](=O)[O-])c1nc2ccc([N+](=O)[O-])cc2[nH]c1=O (stereo unspecified)	> 100 µM	> 100 µM	> 100 µM	> 100 µM	> 100 µM	> 100 µM	> 100 µM	> 100 µM	> 100 µM	–	–	–	–	–	–	–	–	–	–	–

From PubChem BioAssay (NCI)
